The results in this text go back to PubChem BioAssay AID334 (DTP/NCI, 2004).

The assay has as its system CD2F1 mice, intracerebral P388 leukemia, median survival T/C%. In words: NCI In Vivo Anticancer Drug Screen. Data for tumor model P388 Leukemia (intracerebral) in CD2F1 (CDF1) mice. The conditions noted are these: endpoint: median survival time, higher = longer survival. The protocol: The antitumor activity of compounds was measured in mice bearing transplantable tumors. Survival or tumor size were measured and the results are expressed as the measurement made in the treated group (T) divided by the measurement made in the vehicle treated control group (C). The tumor model used in this assay is P388 Leukemia (intracerebral) in CD2F1 (CDF1) mice

Molecules are shown by their SMILES. Values joined by “and” are separate entries in the source; they are usually repeats but may differ in a detail not shown here. Equal values may be shown once. Inconclusive results and toxic doses are left out.

Turning to `F`, the T/C runs as follows: (dose: 16.0 mg/kg/injection, schedule: Q01DX005 (ip), vehicle: saline) 97 % of control and 101 % of control; (dose: 32.0 mg/kg/injection, schedule: Q01DX005 (ip), vehicle: saline) 98 % of control and 99 % of control.

For the compound `CCCCCCOC(=O)C(N)Cc1ccc(N(CCCl)CCCl)cc1` (stereo not drawn), the T/C is, setting by setting: (dose: 1.6 mg/kg/injection, schedule: Q03HX008 (ip), vehicle: saline) 105 % of control; (dose: 3.2 mg/kg/injection, schedule: Q03HX008 (ip), vehicle: saline) 115 % of control; (dose: 6.4 mg/kg/injection, schedule: Q03HX008 (ip), vehicle: saline) 110 % of control.

Take `Cc1cc(OCc2nc(N)nc(N)c2-c2ccc(Cl)c(Cl)c2)ccc1NS(=O)(=O)c1cccc(S(=O)(=O)F)c1`: the T/C by setting is: (dose: 117.0 mg/kg/injection, schedule: Q04DX003 (ip), vehicle: saline) 100 % of control; (dose: 176.0 mg/kg/injection, schedule: Q04DX003 (ip), vehicle: saline) 100 % of control; (dose: 264.0 mg/kg/injection, schedule: Q04DX003 (ip), vehicle: saline) 111 % of control; (dose: 400.0 mg/kg/injection, schedule: Q04DX003 (ip), vehicle: saline) 111 % of control.

For the compound `CC1(C)N=C(N)N=C(N)N1c1ccc(OCC(=O)N2CCOCC2)c(Cl)c1`, the T/C by setting is: (dose: 25.0 mg/kg/injection, schedule: Q01DX009 (ip), vehicle: saline) 88 % of control; (dose: 50.0 mg/kg/injection, schedule: Q01DX009 (ip), vehicle: saline) 111 % of control; (dose: 100.0 mg/kg/injection, schedule: Q01DX009 (ip), vehicle: saline) 100 % of control.

For the compound `CC1(C)N=C(N)N=C(N)N1c1ccc(OCC(=O)Nc2ccc(S(=O)(=O)F)cc2)c(Cl)c1`, the T/C runs as follows: (dose: 50.0 mg/kg/injection, schedule: Q04DX003 (ip), vehicle: saline) 111 % of control; (dose: 100.0 mg/kg/injection, schedule: Q04DX003 (ip), vehicle: saline) 100 % of control; (dose: 200.0 mg/kg/injection, schedule: Q04DX003 (ip), vehicle: saline) 111 % of control.

For the compound `CCC(=O)O[C@H]1CC[C@H]2[C@@H]3CC[C@H]4CC(=O)[C@H](C)C[C@]4(C)[C@H]3CC[C@]12C`, the T/C by setting is: (dose: 8.0 mg/kg/injection, schedule: Q01DX009 (ip), vehicle: Klucel (hydroxypropylcellulose) (HPC)) 121 % of control and 105 % of control; (dose: 8.0 mg/kg/injection, schedule: Q01DX009 (ip), vehicle: saline with Tween-80) 100 % of control and 106 % of control; (dose: 16.0 mg/kg/injection, schedule: Q01DX009 (ip), vehicle: Klucel (hydroxypropylcellulose) (HPC)) 94 % of control and 103 % of control; (dose: 16.0 mg/kg/injection, schedule: Q01DX009 (ip), vehicle: saline with Tween-80) 100 % of control and 106 % of control; (dose: 32.0 mg/kg/injection, schedule: Q01DX009 (ip), vehicle: Klucel (hydroxypropylcellulose) (HPC)) 123 % of control and 98 % of control; (dose: 32.0 mg/kg/injection, schedule: Q01DX009 (ip), vehicle: saline with Tween-80) 97 % of control and 100 % of control. Moreover, the T/C is, setting by setting: (dose: 64.0 mg/kg/injection, schedule: Q01DX009 (ip), vehicle: Klucel (hydroxypropylcellulose) (HPC)) 123 % of control and 100 % of control; (dose: 64.0 mg/kg/injection, schedule: Q01DX009 (ip), vehicle: saline with Tween-80) 116 % of control and 91 % of control; (dose: 128.0 mg/kg/injection, schedule: Q01DX009 (ip), vehicle: Klucel (hydroxypropylcellulose) (HPC)) 120 % of control and 102 % of control; (dose: 128.0 mg/kg/injection, schedule: Q01DX009 (ip), vehicle: saline with Tween-80) 95 % of control and 106 % of control; (dose: 256.0 mg/kg/injection, schedule: Q01DX009 (ip), vehicle: Klucel (hydroxypropylcellulose) (HPC)) 114 % of control and 94 % of control; (dose: 256.0 mg/kg/injection, schedule: Q01DX009 (ip), vehicle: saline with Tween-80) 100 % of control and 109 % of control. For the same compound, the T/C runs as follows: (dose: 512.0 mg/kg/injection, schedule: Q01DX009 (ip), vehicle: Klucel (hydroxypropylcellulose) (HPC)) 111 % of control; (dose: 512.0 mg/kg/injection, schedule: Q01DX009 (ip), vehicle: saline with Tween-80) 91 % of control and 106 % of control.

As to `CC1(C)N=C(N)N=C(N)N1c1ccc(CCCCc2ccc(Cl)c(S(=O)(=O)F)c2)c(Cl)c1`, the T/C was 105 % of control (dose: 8.0 mg/kg/injection, schedule: Q01DX009 (ip), vehicle: saline); 122 % of control (dose: 12.0 mg/kg/injection, schedule: Q01DX009 (ip), vehicle: saline); 116 % of control (dose: 18.0 mg/kg/injection, schedule: Q01DX009 (ip), vehicle: saline); 88 % of control (dose: 27.0 mg/kg/injection, schedule: Q01DX009 (ip), vehicle: saline).

For `CC(C)(C)N1CC1CNC(=O)C(=O)NCC1CN1C(C)(C)C` (stereo not drawn), the T/C reads like this: (dose: 3.0 mg/kg/injection, schedule: Q01DX009 (ip), vehicle: saline with Tween-80) 101 % of control; (dose: 3.12 mg/kg/injection, schedule: Q01DX009 (ip), vehicle: saline with Tween-80) 104 % of control and 107 % of control; (dose: 6.0 mg/kg/injection, schedule: Q01DX009 (ip), vehicle: saline with Tween-80) 121 % of control; (dose: 6.25 mg/kg/injection, schedule: Q01DX009 (ip), vehicle: saline with Tween-80) 117 % of control and 111 % of control; (dose: 12.5 mg/kg/injection, schedule: Q01DX009 (ip), vehicle: saline with Tween-80) 177 % of control; (dose: 25.0 mg/kg/injection, schedule: Q01DX009 (ip), vehicle: saline with Tween-80) 105 % of control.

As to `CN(C)CC(=O)c1ccc(O)c(O)c1`, the T/C by setting is: (dose: 100.0 mg/kg/injection, schedule: Q01DX005 (ip), vehicle: saline) 103 % of control; (dose: 100.0 mg/kg/injection, schedule: Q01DX005 (ip), vehicle: suspension in saline) 93 % of control; (dose: 200.0 mg/kg/injection, schedule: Q01DX005 (ip), vehicle: saline) 108 % of control; (dose: 200.0 mg/kg/injection, schedule: Q01DX005 (ip), vehicle: suspension in saline) 104 % of control; (dose: 400.0 mg/kg/injection, schedule: Q01DX005 (ip), vehicle: saline) 104 % of control; (dose: 400.0 mg/kg/injection, schedule: Q01DX005 (ip), vehicle: suspension in saline) 107 % of control.

`CN1CC[C@]23c4c5ccc(O)c4O[C@H]2C(=O)CC[C@H]3[C@H]1C5`: the T/C by setting is: (dose: 3.12 mg/kg/injection, schedule: Q01DX005 (iv), vehicle: saline) 106 % of control; (dose: 6.25 mg/kg/injection, schedule: Q01DX005 (iv), vehicle: saline) 104 % of control; (dose: 12.5 mg/kg/injection, schedule: Q01DX005 (iv), vehicle: saline) 95 % of control.

For the compound `Nc1nc2c(c(=O)[nH]1)N(C=O)C(CNc1ccc(C(=O)N[C@@H](CCC(=O)O)C(=O)O)cc1)CN2` (stereo partly drawn), the T/C is 98 % of control (dose: 128.0 mg/kg/injection, schedule: Q01DX005 (ip), vehicle: suspension in saline); 97 % of control (dose: 256.0 mg/kg/injection, schedule: Q01DX005 (ip), vehicle: suspension in saline); 100 % of control (dose: 512.0 mg/kg/injection, schedule: Q01DX005 (ip), vehicle: suspension in saline).

Consider `O=P1(N(CCCl)CCCl)NCCCO1` (stereo not drawn), for which the T/C (dose: 265.0 mg/kg/injection, schedule: Q01DX001 (ip), vehicle: saline) was 163 % of control.

With `COc1cc(NCc2ccc3nc(N)nc(N)c3c2C)cc(OC)c1OC` (tested in a mixture with another compound), the T/C (dose: 7.5 mg/kg/injection, schedule: Q01DX009 (ip), vehicle: water) is 100 % of control; the T/C (dose: 15.0 mg/kg/injection, schedule: Q01DX009 (ip), vehicle: water) was 115 % of control; the T/C (dose: 30.0 mg/kg/injection, schedule: Q01DX009 (ip), vehicle: water) was 117 % of control.

For the compound `N[C@@H](Cc1ccc(N(CCCl)CCCl)cc1)C(=O)O`, the T/C is 105 % of control (dose: 0.25 mg/kg/injection, schedule: Q03HX008 (ip), vehicle: saline) and 115 % of control (dose: 0.5 mg/kg/injection, schedule: Q03HX008 (ip), vehicle: saline).

Turning to `CCCCCCCCCCCCCCCCCC(=O)N[C@@H](Cc1ccc(N(CCCl)CCCl)cc1)C(=O)NCCCCCC`, the T/C is, setting by setting: (dose: 2.12 mg/kg/injection, schedule: Q03HX008 (ip), vehicle: saline) 105 % of control; (dose: 4.24 mg/kg/injection, schedule: Q03HX008 (ip), vehicle: saline) 105 % of control; (dose: 8.48 mg/kg/injection, schedule: Q03HX008 (ip), vehicle: saline) 105 % of control; (dose: 16.95 mg/kg/injection, schedule: Q03HX008 (ip), vehicle: saline) 94 % of control; (dose: 33.9 mg/kg/injection, schedule: Q03HX008 (ip), vehicle: saline) 105 % of control; (dose: 67.8 mg/kg/injection, schedule: Q03HX008 (ip), vehicle: saline) 110 % of control.
